Data as given in US4472376A, “Pharmaceutical insertion compositions and a process for producing the same” (Toko Yakuhin Kogyo Kabushiki Kaisha, priority 1976, dated 1984).

Assays:
[1] = 5-fluorouracil blood concentration / absorption by other dosage forms, compared with effective concentration in blood; type: in vivo
From the text: Thus, it has been clearly known that the dosage in the form of the insertion composition of the present invention is quite excellent.

[2] = Concentration of 5-fluorouracil in the serum after insertion into the rectum of a rabbit; type: in vivo; settings: insertion composition of Example 16, rabbit; 3 hours after the insertion
Method: When the pharmaceutical insertion composition of the present invention is inserted into the rectum, its concentration in the serum is as follows:
A pharmaceutical insertion composition obtained in Example 16 is inserted into the rectum of a rabbit having the body weight of 3.2 kg at the rate of 20 mg of 5-fluoroaracil per 1 kg of the body weight, and the concentration of 5-fluorouracil in the serum after the insertion is measured to show the following results: […]

[3] = known value; cited from earlier work

O=c1[nH]cc(F)c(=O)[nH]1 [5-fluorouracil]
absorption from conventional suppository or liquid form ([1]; conventional suppository or liquid): barely absorbed
concentration in blood after injection into vein ([1]; injected into vein, 30 minutes later): less than the effective blood concentration
maintenance of effective concentration in blood after rectal insertion of the gel composition [2]: maintains sufficient effective concentration in blood
effective concentration in blood [3]: about 0.08 μg/ml
